Reference: patent publication US20040249133A1, “Use of lipopeptides or lipoproteins for treating lung infections and lung tumours” (priority 2000, published 2004)

Key:
rats [1] = experiment: Repeated inhalation of MALP-2 by mask in rats; type: in vivo, rat; conditions: 30 μg inhaled by mask, six occasions at one-week intervals
Method: 2) With the aid of a mask, rats are made to inhale 30 μg doses of MALP-2 on six occasions at one-week intervals.

[2] = intraperitoneal injection of a few μg; cited from earlier work
rats [3] = experiment: Intratracheal instillation of MALP-2 in rats, cells determined by bronchoalveolar lavage (BAL); conditions: 3 μg instilled into the trachea
Method: 1) 3 μg of MALP-2 (an S-(2,3-bisacyloxypropyl)-cysteine peptide) are instilled into the trachea of rats. At various times after treatment, cells from the lung lumen are determined by means of bronchoalveolar lavage (BAL).

## MALP-2: macrophage-activating lipopeptide (an S-(2,3-bisacyloxypropyl)-cysteine peptide) isolated from Mycoplasma fermentans
Rats [1]
  clinical condition of the animals: clinically not noteworthy
  lymphatic tissue in the bronchial mucosa: increase in the lymphatic tissue
[2]
  leukocyte infiltration: has brought about leukocyte infiltration
Rats [3]
  adverse effect on the animals: not detectable
  duration of the increase in leukocyte number: lasts for a few days
  food consumption, bodyweight, activity and behaviour: not noteworthy
Rats [3]; after a few hours
  number of leukocytes in the respiratory tracts and the alveolar space (BAL): increase in the number of leukocytes
